Assays:
[1] = saRNA loading / encapsulation efficiency, Quant-IT RiboGreen assay; format: physicochemical; conditions: LNP lipid:DOPE:Cholesterol:DMG-PEG 35:20:43.5:1.5, firefly luciferase saRNA
Method: The saRNA loading in LNP formulations was quantified using a Quant-IT RiboGreen assay (Thermo Fisher Scientific, Waltham, Massachusetts, USA) as previously described. 14 samples were diluted tenfold in 1x Tris HCL-EDTA (TE) buffer (10 mM Tris-HCL, 1 mM EDTA, pH 7.5) with or without 2% (v/v) Triton X-100 (Sigma-Aldrich, Saint Louis, Missouri, USA). Standard solutions were also prepared in 1xTE with or without 2% (v/v) Triton X-100 to account for any variation in fluorescence. The assay was performed according to the manufacturer's protocol. Samples were loaded on a black 96-well plate and analysed for fluorescence on a microplate reader (Tecan Infinite® 200 PRO) at an excitation of 485 nm and emission at 528 nm. Encapsulation efficiency was calculated between 80-100%.

[2] = LNP particle size, polydispersity index and charge by Zeta Sizer; format: physicochemical; conditions: LNP lipid:DOPE:Cholesterol:DMG-PEG 35:20:43.5:1.5, firefly luciferase saRNA; for Polydispersity Index (PI) / Z-average (nm): N/P approx. 40/1
Method: Cationic lipids, DOPE, Cholesterol and DMG-PEG lipid were solubilized in ethanol or DMSO at a molar ratio of 35:20:43.5:1.5 and a concentration of 100:25:20:25 μg/μL for C12-200 or 170:25:20:25 μg/μL for the comparator lipids. Lipid nanoparticles (LNP) were prepared by targeting an N/P ratio of approximately 40/1 with saRNA. Briefly, the firefly luciferase saRNA of approximately 9659 nucleotides was diluted to 0.5 mg/mL in 5 mM citrate buffer, pH 4.5. Microfluidic mixer (Ignite from Precision Nanosystems, California, USA) was used to mix the lipid solution with the saRNA aqueous solution at a ratio of about 1:3 (vol/vol) with total flow rates above 10 ml/min. The ethanol was then removed, and the external buffer replaced with 10 mM TRIS-HCL, PH 7.4, by dialysis. Finally, the lipid nanoparticles were filtered through a 0.2 μm pore sterile filter. Lipid nanoparticle particle size was 50-150 nm diameter and polydispersity index (PI) of 0.1-0.4 as determined by Zeta Sizer (Malvern Panalytical, UK). The charge of the formulation was also measured by Zeta Sizer and ranged between 20 to −20 mV.

[3] = tested on: expression of the luciferase saRNA; assay: In vivo bioluminescent imaging after intramuscular injection of LNP-formulated luciferase saRNA; conditions: 1 μg LNP-formulated luciferase saRNA intramuscularly, female SWISS mice
Method: (§1) Female SWISS mice (6 weeks old) were purchased from Janvier Laboratories (Paris, France) and kept in individually ventilated cages with access to food and water ad libitum. Mice were anesthetized with isoflurane (Zoetis, Louvain-La-Neuve, Belgium) (5% for induction and 2% for maintenance) and intramuscularly injected with a total of 1 μg in 100 μL Tris-HCL (50 μL per leg) LNP-formulated luciferase saRNA (for each group n=7). The expression of the luciferase induced bioluminescence was measured via non-invasive In vivo bioluminescent imaging (In vivo Imaging System (IVIS) Lumina III, Perkin Elmer, Waltham, Massachusetts, USA), 10 minutes after subcutaneous injection of […] of D-luciferin (GoldBio, Saint Louis, Missouri, USA, #LUCK-1G) were measured in day 0 (before injection), day 1, day 3, day 5, day 7, day 10, day 15 and day 20.

[4] = Weight evolution of the animals following administration of LNPs; format: in vivo; conditions: female SWISS mice
Method: as §1

[5] = Day 1, 1 μg LNP-formulated saRNA intramuscularly
[6] = Day 3, 1 μg LNP-formulated saRNA intramuscularly
[7] = Day 5, 1 μg LNP-formulated saRNA intramuscularly
[8] = Day 7, 1 μg LNP-formulated saRNA intramuscularly
[9] = Day 10, 1 μg LNP-formulated saRNA intramuscularly
[10] = Day 15, 1 μg LNP-formulated saRNA intramuscularly
[11] = Day 20, 1 μg LNP-formulated saRNA intramuscularly

SMILES | Encapsulation (%) [1] [%] | Zetapotential (mV) [2] [mV] | Polydispersity Index (PI) [2] | Z-average (nm) [2] [nm] | Bioluminescence expression of LNPs ([3]; Day 1) | Bioluminescence expression of LNPs ([3]; Day 3) | Bioluminescence expression of LNPs ([3]; Day 5) | Bioluminescence expression of LNPs ([3]; Day 7) | Bioluminescence expression of LNPs ([3]; Day 10) | Bioluminescence expression of LNPs ([3]; Day 15) | Bioluminescence expression of LNPs ([3]; Day 20) | Weight ([4]; Day 0) [g] | Weight [4, 5] [g] | Weight [4, 6] [g] | Weight [4, 7] [g] | Weight [4, 8] [g] | Weight [4, 9] [g] | Weight [4, 10] [g] | Weight [4, 11] [g]
CCCCCCCCCCCCCCOC(=O)CCN(CCC(=O)OCCCCCCCCCCCCCC)CCN(CCC(=O)OCCCCCCCCCCCCCC)CCN1CCN(CCN(CCC(=O)OCCCCCCCCCCCCCC)CCC(=O)OCCCCCCCCCCCCCC)CC1 [Comparator 2 (C2), reference compound] | 97.61 | 8.70 | 0.16 | 96.53 | 2.19E+07 | 8.21E+07 | 2.21E+08 | 1.62E+08 | 2.27E+07 | 2.04E+05 | 9.42E+04 | 27.80 | 27.00 | 27.70 | 27.44 | 27.84 | 27.31 | 29.54 | 29.79
CCCCCCC(CCCC)C(=O)OCCN(CCOC(=O)C(CCCC)CCCCCC)CCN(CCOC(=O)C(CCCC)CCCCCC)CCN1CCN(CCN(CCOC(=O)C(CCCC)CCCCCC)CCOC(=O)C(CCCC)CCCCCC)CC1 (stereo not drawn) [Compound 9-26, ((2-(4-(2-((2-(bis(2-((2-butyloctanoyl)oxy)ethyl)amino)ethyl) (2-((2-butyloctanoyl)oxy)ethyl)amino)ethyl)piperazin-1-yl)ethyl)azanediyl) bis(ethane-2,1-diyl)bis(2-butyloctanoate)] | 92.78 | −18.67 | 0.28 | 100.07 | 8.16E+06 | 2.76E+08 | 6.92E+08 | 6.31E+08 | 2.23E+07 | 4.91E+05 | 7.78E+04 | 27.91 | 27.31 | 28.51 | 28.46 | 28.44 | 29.13 | 30.50 | 32.44
CCCCCCC(CCCC)C(=O)OCCCCN(CCCCOC(=O)C(CCCC)CCCCCC)CCN(CCCCOC(=O)C(CCCC)CCCCCC)CCN1CCN(CCN(CCCCOC(=O)C(CCCC)CCCCCC)CCCCOC(=O)C(CCCC)CCCCCC)CC1 (stereo not drawn) [Compound 9-27, ((2-(4-(2-((2-(bis(4-((2-butyloctanoyl)oxy)butyl)amino)ethyl) (4-((2-butyloctanoyl)oxy)butyl)amino)ethyl)piperazin-1-yl)ethyl)azanediyl) bis(butane-4,1-diyl)bis(2-butyloctanoate)] | 93.93 | −10.65 | 0.18 | 65.27 | 4.09E+07 | 1.51E+09 | 1.35E+09 | 9.33E+08 | 2.88E+06 | 2.77E+05 | 1.87E+05 | 27.51 | 26.21 | 28.67 | 28.56 | 29.01 | 29.61 | 30.77 | 31.87
CCCCCCCCC(CCCCCC)C(=O)OCCN(CCOC(=O)C(CCCCCC)CCCCCCCC)CCN(CCOC(=O)C(CCCCCC)CCCCCCCC)CCN1CCN(CCN(CCOC(=O)C(CCCCCC)CCCCCCCC)CCOC(=O)C(CCCCCC)CCCCCCCC)CC1 (stereo not drawn) [Compound 9-29, ((2-(4-(2-((2-(bis(2-((2-hexyldecanoyl)oxy)ethyl)amino)ethyl) (2-((2-hexyldecanoyl)oxy)ethyl)amino)ethyl)piperazin-1-yl)ethyl)azanediyl)bis(ethane-2,1-diyl) bis(2-hexyldecanoate)] | 94.31 | −10.51 | 0.15 | 102.48 | 4.13E+05 | 1.68E+07 | 4.25E+07 | 6.13E+07 | 3.92E+07 | 1.44E+06 | 5.43E+05 | 29.59 | 29.53 | 29.74 | 30.04 | 30.93 | 30.63 | 30.89 | 32.69
CCCCCCCCC(CCCCCC)C(=O)OCCCCN(CCCCOC(=O)C(CCCCCC)CCCCCCCC)CCN(CCCCOC(=O)C(CCCCCC)CCCCCCCC)CCN1CCN(CCN(CCCCOC(=O)C(CCCCCC)CCCCCCCC)CCCCOC(=O)C(CCCCCC)CCCCCCCC)CC1 (stereo not drawn) [Compound 9-30, ((2-(4-(2-((2-(bis(4-((2-hexyldecanoyl)oxy)butyl)amino)ethyl) (4-((2-hexyldecanoyl)oxy)butyl)amino)ethyl)piperazin-1-yl)ethyl)azanediyl) bis(butane-4,1-diyl)bis(2-hexyldecanoate)] | 94.22 | −8.56 | 0.17 | 115.36 | 2.31E+06 | 2.87E+07 | 6.18E+07 | 9.09E+07 | 2.84E+07 | 1.67E+05 | 1.67E+05 | 29.39 | 28.23 | 29.73 | 29.77 | 30.46 | 31.20 | 30.96 | 32.00
CCCCCCC(CCCC)C(=O)OCCN(CCOC(=O)C(CCCC)CCCCCC)CCN1CCN(CCN(CCOC(=O)C(CCCC)CCCCCC)CCOC(=O)C(CCCC)CCCCCC)CC1 (stereo not drawn) [Compound 9-32, ((piperazine-1,4-diylbis(ethane-2,1-diyl))bis(azanetriyl))tetrakis(ethane-2,1-diyl) tetrakis(2-butyloctanoate)] | 93.33 | −16.38 | 0.17 | 54.53 | 5.13E+06 | 1.31E+08 | 2.76E+08 | 3.71E+08 | 1.08E+07 | 6.35E+05 | 1.29E+05 | 27.00 | 26.94 | 28.46 | 28.26 | 28.11 | 27.91 | 29.69 | 30.94

Source: patent US20250236599A1, “LIPID NANOPARTICLES FOR OLIGONUCLEOTIDE DELIVERY” (ZIPHIUS NV, priority 2021, published 2025)
